Measurements as given in US10238593B2, “System and method for preventing alopecia” (FOLLEA INTERNATIONAL, priority 2014, dated 2019).

Tests used:
[1] = system: scalp hair; assay: Hair shedding: hairs removed with brush, 4-day protocol (Example 5); format: in vivo, human
Text: Patients: Fifteen female subjects, ages 18-40, were included in the study. Subjects were recruited based on their frequent use of traumatic hair care practices, such as, tight braids, head scarves, ponytails, extensions, hair rollers, hair weaves and heated styling appliances such as blow dryers, flat irons, heat setters and curling irons. Subjects with uncontrolled hypertension, that were pregnant or breastfeeding, had been diagnosed with pattern hair loss or with other hair loss in conjunction with female pattern hair loss were excluded from the study. […] Piloerection and blanching were visible after 30 minutes; the effect lasted for approximately 2-3 hours.
Hair Shedding: To measure hair loss during cosmetic procedures, a 4-day protocol was designed. On the first day patients were instructed to wash their hair and use styling products and procedures as they normally would. On the second day, patients were instructed not to wash their hair and to apply 0.5 mL of a placebo solution, containing a vehicle only, on the frontal area of the scalp in an 8×10 cm2 target area. Patients were instructed to wait 45 minutes, after which, they brushed their hair 20 times from the front of the scalp to the bottom of head using a new brush. After the procedure, the brushes were sealed in a plastic bag. […] After each clinical procedure, the investigator counted the hairs collected on each brush. […]

[2] = system: scalp hair follicles; assay: Epilation force measured with trichotillometer (Example 5); format: in vivo, human; details: average of 10 subjects
Experimental: To evaluate the effect of a topically applied α1-AR agonist on the force required to pluck hairs from the scalp, a hand-held spring dynamometer, or “trichotillometer” was used (8). The trichotillometer records the maximum force threshold, in grams, required to pluck a single hair from the scalp; the performance and statistical variance of the instrument have been reported previously (8-10). Force measurements were performed using the trichotillometer on 10 subjects. The frontal area of scalp was divided into two 8×10 cm2 areas. On the right side 0.5 mL of a placebo vehicle was applied. […] After 45 minutes, ten hairs were plucked from each of the target areas with the trichotillometer.

CNC[C@H](O)c1cccc(O)c1 [phenylephrine]
subjects with reduced shedding compared to placebo ([1]; 15 female subjects, blinded study): 80%
AVERAGE reduction in hair loss vs placebo ([1]; average of 15 subjects): approximately 42%
AVERAGE increase of epilation force threshold vs placebo [2]: approximately 172%
